The values that follow come from US11339165B2, “Pyrazolopyrimidines having activity against the respiratory syncytial virus (RSV)” (priority 2017, dated 2022).

Data set [1] is described as follows: Pharmacokinetics after single intravenous administration in the fasted male Beagle dog. Format: in vivo. As to conditions: intravenous administration at 1 mg/kg in dogs, first 8 hours after administration. Here is the method:
E.2 Pharmacokinetics after Single Intravenous Administration in the Fasted Male Beagle Dog
The test compound was dissolved in a 20% (w/v) hydroxypropyl-β-cyclodextrin (HP-beta-CD) solution at a final concentration of 2 mg/mL for the intravenous formulation. NaOH was added to the formulations to facilitate dissolution and after total dissolution the pH was adjusted with HCl to 8.4. The intravenous (IV) formulation was made isotonic with mannitol. Prior to dosing, all formulations were stored at room temperature and protected from light. The IV formulation was dosed in a cephalic vein at 0.5 mL/kg to obtain a final dose of 1 mg/kg.
Three male Beagle dogs, with a mean weight of 10.9±1.1 kg, were used. A complete concentration time profile was obtained from each individual animal. Prior to dosing, animals were fasted overnight. Their standard dry diet was returned to them at 2 hours post dose. Tap water was available ad libitum.
From each individual animal, blood samples were taken at 7 and 20 minutes, 1, 2, 4, 7, 24 and 48 hours after intravenous dose administration. […] Plasma samples were analysed using a qualified research LC-MS/MS method. The key analytical performance (linearity, upper and lower limit of quantification, accuracy and precision) of the method was reported together with the plasma concentrations. The lower limit of quantification (LLOQ) was 10.0 ng/mL. […]

The next data set deals with rgRSV224 virus. Description: Antiviral activity: rgRSV224 (GFP) replication in HeLa cells. The class given is cell-based, respiratory syncytial virus (RSV). As to conditions: human respiratory syncytial virus, HeLa, 72 h, read-out: RSV HELA EC50 (μM), rgRSV224 virus (MOI=1), HeLa cells, GFP expression three days post-virus exposure.
Another data set can be described thus: in vitro. As to conditions: human, TOX HELA CC50 (μM).

`CNC(=O)[C@H]1CCN(c2ccc(-c3cc4nc(C(=O)N5CCc6ccccc6[C@H]5C)cc(C5CC5)n4n3)c(F)c2)C1` [Compound 37, (3S)-1-(4-{7-Cyclopropyl-5-[(1R)-1-methyl-1,2,3,4-tetrahydroisoquinoline-2-carbonyl]pyrazolo[1,5-a]pyrimidin-2-yl}-3-fluorophenyl)-N-methylpyrrolidine-3-carboxamide] displayed a melting point of 123.18 °C. Further, in data set [1], the plasma concentration profile entry is given as “does not show this rapid decline”. Also, the EC50 in the data set with rgRSV224 virus came to 0.019 µM. Moreover, the CC50 at 3 days in the data set “in vitro” came to 62 µM.
Compound `C[C@@H]1c2ccccc2CCN1C(=O)c1cc(C2CC2)n2nc(-c3cnc(N4CC[C@H](C(=O)NS(C)(=O)=O)C4)cc3F)cc2n1` [Compound 54, (3S)-1-(5-{7-Cyclopropyl-5-[(1R)-1-methyl-1,2,3,4-tetrahydroisoquinoline-2-carbonyl]-pyrazolo[1,5-a]pyrimidin-2-yl}-4-fluoropyridin-2-yl)-N-methanesulfonylpyrrolidine-3-carboxamide] gave a melting point of 254.46 °C. In addition, in the data set on rgRSV224 virus, the EC50 stood at 0.192 µM. In addition, it took 77.4 µM to reach half-maximal cytotoxicity in “in vitro” (CC50 at 3 days).
With `C[C@@H]1c2ccccc2CCN1C(=O)c1cc(C2CC2)n2nc(-c3cc(F)c(N4CC[C@H](C(N)=O)C4)cc3F)cc2n1` [Compound 55, (3S)-1-(4-{7-Cyclopropyl-5-[(1R)-1-methyl-1,2,3,4-tetrahydroisoquinoline-2-carbonyl]-pyrazolo[1,5-a]pyrimidin-2-yl}-2,5-difluorophenyl)pyrrolidine-3-carboxamide], the melting point came to 253.3 °C. Also, the EC50 in the data set on rgRSV224 virus came to 0.016 µM. In the data set “in vitro”, this compound had a CC50 at 3 days of more than 100 µM.
`COc1ccc(-c2cc(C(=O)N3CCc4ccccc4[C@H]3C)nc3cc(-c4ccc(N5CC[C@H](C(N)=O)C5)cc4F)nn23)cc1` [Compound 57, (3S)-1-{3-Fluoro-4-[7-(4-methoxyphenyl)-5-[(1R)-1-methyl-1,2,3,4-tetrahydro-isoquinoline-2-carbonyl]pyrazolo[1,5-a]pyrimidin-2-yl]phenyl}pyrrolidine-3-carboxamide] had a melting point of 216.34 °C. The EC50 in the data set with rgRSV224 virus is 0.023 µM. This compound also had a CC50 at 3 days in the data set “in vitro” of more than 100 µM.
In the case of `C[C@@H]1c2ccccc2CCN1C(=O)c1cc(-c2ccc(C#N)cc2)n2nc(-c3ccc(N4CC[C@H](C(N)=O)C4)cc3F)cc2n1` [Compound 62, (3S)-1-{4-[7-(4-Cyanophenyl)-5-[(1R)-1-methyl-1,2,3,4-tetrahydroisoquinoline-2-carbonyl]pyrazolo[1,5-a]pyrimidin-2-yl]-3-fluorophenyl}pyrrolidine-3-carboxamide], the melting point came to 173.36 °C. In the data set with rgRSV224 virus, the EC50 is 0.043 µM. The same compound came in with a CC50 at 3 days in the data set “in vitro” of more than 100 µM.
With `C[C@@H]1c2ccccc2CCN1C(=O)c1cc(C2CC2)n2nc(-c3ccc(N4CC(CC(N)=O)C4)cc3F)cc2n1` [Compound 65, 2-[1-(4-{7-Cyclopropyl-5-[(1R)-1-methyl-1,2,3,4-tetrahydroisoquinoline-2-carbonyl]-pyrazolo[1,5-a]pyrimidin-2-yl}-3-fluorophenyl)azetidin-3-yl]acetamide], the melting point turned out to be 211.64 °C. The EC50 with rgRSV224 virus came to 0.048 µM. Moreover, in “in vitro”, the CC50 at 3 days amounted to 39.1 µM.
On the same counts, the results for `CNC(=O)CC1CN(c2ccc(-c3cc4nc(C(=O)N5CCc6ccccc6[C@H]5C)cc(C5CC5)n4n3)c(F)c2)C1` [Compound 66, 2-[1-(4-{7-Cyclopropyl-5-[(1R)-1-methyl-1,2,3,4-tetrahydroisoquinoline-2-carbonyl]-pyrazolo[1,5-a]pyrimidin-2-yl}-3-fluorophenyl)azetidin-3-yl]-N-methylacetamide] are 143.13 °C, 0.04 µM and 36.4 µM.
In the case of `C[C@@H]1c2ccccc2CCN1C(=O)c1cc(C2CC2)n2nc(-c3ccc(N4CC(O)C4)cc3F)cc2n1` [Compound 67, 1-(4-{7-Cyclopropyl-5-[(1R)-1-methyl-1,2,3,4-tetrahydroisoquinoline-2-carbonyl]-pyrazolo[1,5-a]pyrimidin-2-yl}-3-fluorophenyl)azetidin-3-ol], the melting point is 205.81 °C. The EC50 with rgRSV224 virus was found to be 0.03 µM. Further, in the data set “in vitro”, the CC50 at 3 days was found to be 36.5 µM.
On the same counts, the results for `CNC(=O)C1CCN(c2ccc(-c3cc4nc(C(=O)N5CCc6ccccc6[C@H]5C)cc(C5CC5)n4n3)c(F)c2)CC1` [Compound 72, 1-(4-{7-Cyclopropyl-5-[(1R)-1-methyl-1,2,3,4-tetrahydroisoquinoline-2-carbonyl]-pyrazolo[1,5-a]pyrimidin-2-yl}-3-fluorophenyl)-N-methylpiperidine-4-carboxamide] are 252.4 °C, 0.087 µM and more than 100 µM.
With `C[C@@H]1c2ccccc2CCN1C(=O)c1cc(C2CC2)n2nc(-c3ccc(N4CCC(O)CC4)cc3F)cc2n1` [Compound 74, 1-(4-{7-Cyclopropyl-5-[(1R)-1-methyl-1,2,3,4-tetrahydroisoquinoline-2-carbonyl]-pyrazolo[1,5-a]pyrimidin-2-yl}-3-fluorophenyl)piperidin-4-ol], the melting point is 144.01 °C. For the same compound, in the data set with rgRSV224 virus, the concentration giving a half-maximal response (EC50) was 0.076 µM. For the same compound, the midpoint of cytotoxicity in the data set “in vitro”, the CC50 at 3 days, lay at 48.1 µM.
On the same counts, the results for `C[C@@H]1c2ccccc2CCN1C(=O)c1cc(C2CC2)n2nc(-c3ccc(N4CCCC(O)C4)cc3F)cc2n1` (stereo partly drawn) [Compound 75, 1-(4-{7-Cyclopropyl-5-[(1R)-1-methyl-1,2,3,4-tetrahydroisoquinoline-2-carbonyl]-pyrazolo[1,5-a]pyrimidin-2-yl}-3-fluorophenyl)piperidin-3-ol] are 197.51 °C, 0.076 µM and more than 100 µM.
For the compound `C[C@@H]1c2ccccc2CCN1C(=O)c1cc(C2CC2)n2nc(-c3ccc(N4CC[C@H](NC(=O)C(F)(F)F)C4)cc3F)cc2n1` [Compound 76, N-[(3S)-1-(4-{7-Cyclopropyl-5-[(1R)-1-methyl-1,2,3,4-tetrahydroisoquinoline-2-carbonyl]pyrazolo[1,5-a]pyrimidin-2-yl}-3-fluorophenyl)pyrrolidin-3-yl]-2,2,2-trifluoroacetamide], the melting point is 221.2 °C. In addition, the EC50 with rgRSV224 virus was 0.246 µM. Moreover, in “in vitro”, the CC50 at 3 days was more than 100 µM.
On to `C[C@@H]1c2ccccc2CCN1C(=O)c1cc(C2CC2)n2nc(-c3ccc(N4CC[C@@H](S(C)(=N)=O)C4)cc3F)cc2n1` (stereo partly drawn) [Compound 79, [(3R)-1-(4-{7-Cyclopropyl-5-[(1R)-1-methyl-1,2,3,4-tetrahydroisoquinoline-2-carbonyl]-pyrazolo[1,5-a]pyrimidin-2-yl}-3-fluorophenyl)pyrrolidin-3-yl](imino)methyl-λ^6-sulfanone], for which the melting point turned out to be 285.54 °C. Besides, the EC50 in the data set on rgRSV224 virus stood at 0.476 µM. This compound also had a CC50 at 3 days in “in vitro” of 13.3 µM.
Consider `C[C@@H]1c2ccccc2CCN1C(=O)c1cc(-c2ccccn2)n2nc(-c3ccc(N4CC[C@H](C(N)=O)C4)cc3F)cc2n1` [Compound 84, (3S)-1-(3-Fluoro-4-{5-[(1R)-1-methyl-1,2,3,4-tetrahydroisoquinoline-2-carbonyl]-7-(pyridin-2-yl)pyrazolo[1,5-a]pyrimidin-2-yl}phenyl)pyrrolidine-3-carboxamide], for which the melting point was 252.18 °C. For the same compound, in the data set with rgRSV224 virus, the EC50 stood at 0.006 µM. The same compound came in with a CC50 at 3 days in “in vitro” of 19 µM.
The compound `COCCOc1cc(N2CC[C@H](C(N)=O)C2)nc(F)c1-c1cc2nc(C(=O)N3CCc4ccccc4[C@H]3C)cc(C3CC3)n2n1` [Compound 87, (3S)-1-(5-{7-Cyclopropyl-5-[(1R)-1-methyl-1,2,3,4-tetrahydroisoquinoline-2-carbonyl]-pyrazolo[1,5-a]pyrimidin-2-yl}-6-fluoro-4-(2-methoxyethoxy)pyridin-2-yl)pyrrolidine-3-carboxamide] yielded a melting point of 152.28 °C. The EC50 in the data set with rgRSV224 virus came to 0.215 µM. Half-maximal cytotoxicity in the data set “in vitro” (CC50 at 3 days) was put at 47.4 µM.
With `C[C@@H]1c2ccccc2CCN1C(=O)c1cc(C2CC2)n2nc(-c3ccc(N4CC(C(N)=O)C4)cc3F)cc2n1` [Compound 91, 1-(4-{7-Cyclopropyl-5-[(1R)-1-methyl-1,2,3,4-tetrahydroisoquinoline-2-carbonyl]pyrazolo[1,5-a]pyrimidin-2-yl}-3-fluorophenyl)azetidine-3-carboxamide], the melting point is 236.01 °C. Also, the EC50 in the data set on rgRSV224 virus was 0.036 µM. For the same compound, the midpoint of cytotoxicity in the data set “in vitro”, the CC50 at 3 days, lay at 28.3 µM.
Regarding `C[C@@H]1c2ccccc2CCN1C(=O)c1cc(C2CC2)n2nc(-c3ccc(N4C[C@H](O)[C@@H](O)C4)cc3F)cc2n1` [Compound 102, (7-cyclopropyl-2-(4-((3S,4S)-3,4-dihydroxypyrrolidin-1-yl)-2-fluorophenyl)pyrazolo[1,5-a]pyrimidin-5-yl)((R)-1-methyl-3,4-dihydroisoquinolin-2(1H)-yl)methanone], the plasma concentration profile entry in data set [1] is “does not show this rapid decline”. The EC50 with rgRSV224 virus was determined as 0.026 µM. In addition, half-maximal cytotoxicity in the data set “in vitro” (CC50 at 3 days) was put at 44.4 µM.

By melting point is commonly meant the temperature of the solid-liquid transition. By EC50 is commonly meant the concentration at which the effect is half-maximal. The term CC50 denotes the concentration at which the toxic effect on the cells reaches its halfway point. Low readings indicate greater toxicity to the cells, high ones lower toxicity to the cells.
